Data as given in PMC9662648 (Journal of the American Chemical Society, 2022).
Several values for one entry are separate records, joined by “and”; a condition that tells them apart may be missing. Identical values can stand only once. Like-named read-outs stand apart in the source and are kept apart here. Square brackets hold non-standard residues; d marks the D form. Peptide text beside a SMILES is read from it. * marks the point of attachment. Cit = NC(=O)NCCC[C@H](N)C(=O)O; CH2Cl = ClC*

Columns and labels:
SARS-CoV2 [1] = format: in vivo, K18-hACE2 transgenic mice; settings: for SARS-CoV2-induced weight loss and lethality: intranasal, 10 mg/kg once daily for 3 days starting 2 h prior to infection; for lung histopathology: intraperitoneal treatment for 5 days; for SARS-CoV-2-induced weight loss and lethality: intraperitoneal, 25 mg/kg twice daily for 5 days, post-infection; for viral RNA loads and titers in lung tissue: versus vehicle control, 72 h treatment
[2] = Weight loss in mock infected mice; settings: mouse, in vivo
SARS-CoV2 [3] = format: cell-based; settings: for EC50: read-out: EC50 for the inhibition of SARS-CoV-2 infection
PL^Pro = PL^Pro (Severe acute respiratory syndrome coronavirus 2, UniProt P0DTD1); settings: read-out: PL^Pro IC50
Cathepsin B = Cathepsin B (Homo sapiens, UniProt P07858); experiment: Cathepsin B inhibition; format: biochemical; settings: read-out: Cathepsin B IC50
SARS-CoV2 pseudovirus = format: cell-based
SARS-CoV-2 = format: cell-based; settings: relative to the DMSO control
M^Pro = M^Pro (Severe acute respiratory syndrome coronavirus 2, UniProt P0DTD1); format: biochemical; settings: for Ki: read-out: M^Pro Ki(app), apparent; for M^Pro kinact/KI: second-order rate constant for enzyme inactivation; for fold less potent M^Pro inhibitor than alkyne parent: probes lacking the alkyne versus their parents
OC-43 = experiment: Inhibition of OC-43 in A549-hACE2 cells; format: cell-based; settings: to a lesser extent than SARS-CoV2
Cathepsin L = Cathepsin L (Homo sapiens, UniProt P07711); experiment: Cathepsin L inhibition; format: biochemical; settings: for IC50: read-out: Cathepsin L IC50
Cathepsin L, sequence (P07711 114-333): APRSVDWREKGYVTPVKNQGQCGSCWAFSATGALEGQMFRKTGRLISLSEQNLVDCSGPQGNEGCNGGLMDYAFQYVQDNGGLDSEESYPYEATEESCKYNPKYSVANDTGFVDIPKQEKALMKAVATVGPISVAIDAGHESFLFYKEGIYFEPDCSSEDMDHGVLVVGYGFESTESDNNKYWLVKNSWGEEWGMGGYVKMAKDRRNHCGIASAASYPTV

[4] = Pharmacokinetics in BALB-6c mice; settings: for adverse events or signs of toxicity: at the tested doses
CatL = CatL (Homo sapiens, UniProt P07711); settings: SM144 5 μM, 24 h, live A549-hACE2 cells
CatL, sequence (P07711 114-333): as above

SARS-CoV2 [5] = format: cell-based; settings: Huh7.5 cells, 2 μM, 24 h, MOI 0.05
Cytotoxicity = format: cell-based

SMILES: CCOC(=O)C=CC(CC1CCNC1=O)NC(=O)C(Cc1ccccc1)NC(=O)C(Cc1ccc(F)cc1)NC(=O)OC(C)(C)C (stereo not drawn) [SM142]
- SARS-CoV2-induced weight loss and lethality (SARS-CoV2 [1]): protects mice from SARS-CoV2-induced weight loss and lethality
- lung histopathology (SARS-CoV2 [1]): significant reduction in lung inflammation and improved overall lung pathology
- SARS-CoV-2-induced weight loss and lethality (SARS-CoV2 [1]): protects K18-ACE2 mice from SARS-CoV-2-induced weight loss and lethality
- viral RNA loads and titers in lung tissue (SARS-CoV2 [1]): remarkably lower
- weight loss in mock infected mice [2]: no significant weight loss
- fold by which the antiviral EC50 is lower than potency for M^Pro inhibition (SARS-CoV2 [3]): more than 100 fold
- EC50 (SARS-CoV2 [3]; A549-hACE2 cells): 0.0147 µM
- IC50 (PL^Pro): > 50 µM
- IC50 (Cathepsin B): 40 ± 9 µM
- additional inhibition of pseudovirus entry in CatL knockdown cells (SARS-CoV2 pseudovirus): did not show any significant additional inhibitory activity
- inhibition of live virus infection in CatL knockdown cells (SARS-CoV-2): do inhibit live virus infection
- Ki (M^Pro): 10 ± 1 µM
- M^Pro kinact/KI (M^Pro): (1.1 ± 0.3)×10^4 M^−1min^−1
- inhibition of OC-43 (OC-43): inhibits OC-43
- Cathepsin L kinact/KI (Cathepsin L): (1.1 ± 0.01)×10^5 M^−1min^−1
- IC50 (Cathepsin L): 0.145 ± 0.014 µM
- AUCINF_obs ([4]; IV): 18490 ng·min/mL
- AUClast ([4]; IV): 0.4 µM·h
- CI_Obs ([4]; IV): 169 mL/min/kg
- Cmax ([4]; IV): 400 nM
- MRTINF_obs ([4]; IV): 114 min
- T1/2 ([4]; IV): 126 min
- Tmax ([4]; IV): 4.8 min
- VSS_obs ([4]; IV): 13.2 L/kg
- % Bioavailability ([4]; PO): 38% and 37.5%
- AUCINF_obs ([4]; PO): 20843 ng·min/mL
- AUClast ([4]; PO): 0.5 µM·h
- Cmax ([4]; PO): 600 nM
- T1/2 ([4]; PO): 126 min
- Tmax ([4]; PO): 4.8 min
- adverse events or signs of toxicity [4]: no adverse events or signs of toxicity were observed
- volume of distribution ([4]; calculated): 13 L/kg

SMILES: CCOC(=O)C=CC(CC1CCNC1=O)NC(=O)C(Cc1ccc(F)cc1)NC(=O)C(Cc1ccccc1)NC(=O)OC(C)(C)C (stereo not drawn) [SM136]
- Ki (M^Pro): 73 ± 4 µM
- M^Pro kinact/KI (M^Pro): (7.7 ± 0.3)×10^2 M^−1min^−1

SMILES: C#CCOCCC(=O)NC(Cc1ccccc1)C(=O)NC(Cc1ccccc1)C(=O)NC(C=CC(=O)OCC)CC1CCNC1=O (stereo not drawn) [SM145]
- antiviral activity compared with SM141 and SM142 (SARS-CoV2 [3]): significantly lower antiviral activity
- IC50 (PL^Pro): > 50 µM
- IC50 (Cathepsin B): > 50 µM
- Ki (M^Pro): 5.3 ± 0.4 µM
- Cathepsin L kinact/KI (Cathepsin L): (2.5 ± 0.01)×10^4 M^−1min^−1
- IC50 (Cathepsin L): 0.2 ± 0.004 µM

SMILES: N=C(N)NCCC[C@H](NC(=O)[C@H](Cc1ccccc1)NC(=O)[C@H](N)Cc1ccccc1)C(=O)CCl [D-FFR-CMK] (H-[dF]-Phe-Arg-CH2Cl)
- IC50 (PL^Pro): 5 ± 0.3 µM
- fold less potent M^Pro inhibitor than alkyne parent (M^Pro): 4–5 fold

SMILES: NC(=O)NCCC[C@H](NC(=O)[C@H](Cc1ccccc1)NC(=O)[C@H](N)Cc1ccccc1)C(=O)CCl [D-FFCit-CMK] (H-[dF]-Phe-[Cit]-CH2Cl)
- IC50 (PL^Pro): > 50 µM
- fold less potent M^Pro inhibitor than alkyne parent (M^Pro): 4–5 fold

SMILES: CCOC(=O)C=CC(CC1CCNC1=O)NC(=O)C(Cc1ccc(F)cc1)NC(=O)C(N)Cc1ccccc1 (stereo not drawn) [SM137]
- Ki (M^Pro): 50 ± 6 µM
- M^Pro kinact/KI (M^Pro): (1.8 ± 0.2)×10^3 M^−1min^−1

SMILES: C#CCOCCC(=O)NC(Cc1ccc(F)cc1)C(=O)NC(Cc1ccccc1)C(=O)NC(C=CC(=O)OCC)CC1CCNC1=O (stereo not drawn) [SM144]
- antiviral activity compared with SM141 and SM142 (SARS-CoV2 [3]): significantly lower antiviral activity
- IC50 (PL^Pro): > 50 µM
- enrichment of CatL (CatL): > 128 fold
- IC50 (Cathepsin B): > 50 µM
- Ki (M^Pro): 4.5 ± 0.5 µM
- M^Pro kinact/KI (M^Pro): (3.4 ± 0.1)×10^4 M^−1min^−1
- Cathepsin L kinact/KI (Cathepsin L): (6 ± 0.2)×10^4 M^−1min^−1
- IC50 (Cathepsin L): 0.22 ± 0.026 µM

SMILES: CCOC(=O)C=CC(CC1CCNC1=O)NC(=O)C(Cc1ccccc1)NC(=O)C(N)Cc1ccccc1 (stereo not drawn) [SM141]
- SARS-CoV2-induced weight loss and lethality (SARS-CoV2 [1]): protects mice from SARS-CoV2-induced weight loss and lethality
- lung histopathology (SARS-CoV2 [1]): significant reduction in lung inflammation and improved overall lung pathology
- SARS-CoV-2-induced weight loss and lethality (SARS-CoV2 [1]): protects K18-ACE2 mice from SARS-CoV-2-induced weight loss and lethality
- viral RNA loads and titers in lung tissue (SARS-CoV2 [1]): remarkably lower
- weight loss in mock infected mice [2]: no significant weight loss
- fold by which the antiviral EC50 is lower than potency for M^Pro inhibition (SARS-CoV2 [3]): more than 100 fold
- antiviral activity (SARS-CoV2 [3]; A549-hACE2 cells, 2 μM, 24 h, MOI 0.05): almost completely blocks viral infection
- EC50 (SARS-CoV2 [3]; A549-hACE2 cells): 0.0082 µM
- EC90 (SARS-CoV2 [3]; read-out: EC90 for the inhibition of SARS-CoV-2 infection, A549-hACE2 cells): 0.0221 µM
- IC50 (PL^Pro): > 50 µM
- IC50 (Cathepsin B): > 50 µM
- additional inhibition of pseudovirus entry in CatL knockdown cells (SARS-CoV2 pseudovirus): did not show any significant additional inhibitory activity
- inhibition of live virus infection in CatL knockdown cells (SARS-CoV-2): do inhibit live virus infection
- antiviral activity (SARS-CoV2 [5]): almost completely blocks viral infection
- concentration up to which no notable cytotoxicity is caused (Cytotoxicity): 50000 nM
- Ki (M^Pro): 9 ± 1 µM
- M^Pro kinact/KI (M^Pro): (2.0 ± 0.2)×10^4 M^−1min^−1
- inhibition of OC-43 (OC-43): inhibits OC-43
- Cathepsin L kinact/KI (Cathepsin L): (1.9 ± 0.5)×10^5 M^−1min^−1
- fold more potent for CatL inhibition than M^Pro (Cathepsin L; from IC50 and kinact/KI values): 10 fold
- IC50 (Cathepsin L): 0.06 ± 0.001 µM
- % Bioavailability ([4]; IP): 35.2%
- AUCINF_obs ([4]; IP): 49620 ng·min/mL
- AUClast ([4]; IP): 1.6 µM·h
- Cmax ([4]; IP): 2700 nM
- T1/2 ([4]; IP): 48 min
- Tmax ([4]; IP): 8.4 min
- AUCINF_obs ([4]; IV): 42350 ng·min/mL
- AUClast ([4]; IV): 1.3 µM·h
- CI_Obs ([4]; IV): 71.5 mL/min/kg
- Cmax ([4]; IV): 3900 nM
- MRTINF_obs ([4]; IV): 24 min
- T1/2 ([4]; IV): 48 min
- Tmax ([4]; IV): 4.8 min
- VSS_obs ([4]; IV): 1.6 L/kg
- % Bioavailability ([4]; PO): 5%
- AUCINF_obs ([4]; PO): 7325 ng·min/mL
- AUClast ([4]; PO): 0.14 µM·h
- Cmax ([4]; PO): 200 nM
- Tmax ([4]; PO): 48 min
- adverse events or signs of toxicity [4]: no adverse events or signs of toxicity were observed

SMILES: CCOC(=O)C=CC(CC1CCNC1=O)NC(=O)C(Cc1ccccc1)NC(=O)C(Cc1ccccc1)NC(=O)OC(C)(C)C (stereo not drawn) [SM140]
- IC50 (PL^Pro): > 50 µM
- IC50 (Cathepsin B): > 50 µM
- Ki (M^Pro): 16 ± 2 µM
- M^Pro kinact/KI (M^Pro): (9.0 ± 0.2)×10^3 M^−1min^−1
